The text below walks through data of patent publication US20030190338A1, “Topical application of immixture of ascorbic acid + ascorbic acid compounds for augmenting the synthesis of epidermal ceramides” (SOCIETE L'OREAL S.A., priority 2000, published 2003).

The assay concerns skin equivalent marketed by EPISKIN (reconstructed epidermis). Put plainly: Synthesis of epidermal ceramides in reconstructed epidermis (14C acetate labelling, HPTLC, densitometry). The conditions noted are these: each compound alone at 15 μg/ml, relative to the untreated control; for % increase in ceramides in the epidermis equivalent: 24 hours of treatment; for % increase in the ceramides in the epidermis equivalent: 48 hours of treatment. The format is cell-based. On the procedure:
Ascorbic acid and derivatives thereof were tested on a skin equivalent marketed by EPISKIN (LYON, France), after culturing the latter for 7 days. The culture and test media were those included in the kit marketed by the supplier. Each compound was tested individually at 15 μg/ml and in combination with 5 μg/ml (as vitamin C equivalent), in the culture medium. The reconstructed epidermes were treated for 24 hours. The control consisted of an identical epidermis equivalent which was subjected to topical application of culture medium without the test compound.
The reconstructed epidermis was incubated overnight with ^14C acetate (2 μCi/ml) before topical application of vitamin C and derivatives thereof, to monitor the synthesis of the lipids.
At the end of the incubation period, the epidermis equivalent was detached from its collagenic support. The preparation of the lipids of the epidermis equivalent and their analysis by HPTLC or high-performance thin-layer chromatography, were carried out according to the technique and with the buffers described by M. Ponec (1991, Adv. Lipid Res., 24:83-117).
At the end of the migration, densitometric analysis of the autoradiograph was carried out using a densitometer of the FUJI brand, model 1800.
The procedure described in Example 1 was repeated, except that the test was performed over 48 hours instead of 24 hours. In addition, only vitamin C and vitamin CP were tested, the mixture of the two being formulated using 7.5 μg/ml of each vitamin.

Regarding `O=C1O[C@H]([C@@H](O)CO)C(O)=C1O` [Vitamin C, ascorbic acid], the “% increase in ceramides in the epidermis equivalent” value (“% increase in ceramides” below) amounted to 54% and the “% increase in the ceramides in the epidermis equivalent” value was 126%.

On to `O=C1O[C@H]([C@@H](O)CO)C(O)=C1O[C@H]1O[C@H](CO)[C@@H](O)[C@H](O)[C@H]1O` [Vitamin CG, ascorbyl 2-glucoside], for which the “% increase in ceramides” value stood at 69%.

On to `O=C1O[C@H]([C@@H](O)CO)C([O-])=C1OP(=O)([O-])[O-].O=C1O[C@H]([C@@H](O)CO)C([O-])=C1OP(=O)([O-])[O-].[Mg+2].[Mg+2].[Mg+2]` [Vitamin CP, Magnesium ascorbyl phosphate], for which the “% increase in ceramides” value worked out at 99% and the “% increase in the ceramides in the epidermis equivalent” value worked out at 148%.
